Laboratory results taken from the supplement of paper PMC10307832.

Legend:
Assay in all cases: relative viability (nuclei count vs DMSO), 5 days (fraction); higher = more cells survive
Trametinib + Pictilisib = compound: CC(=O)Nc1cccc(-n2c(=O)n(C3CC3)c(=O)c3c(Nc4ccc(I)cc4F)n(C)c(=O)c(C)c32)c1 [Trametinib] + CS(=O)(=O)N1CCN(Cc2cc3nc(-c4cccc5[nH]ncc45)nc(N4CCOCC4)c3s2)CC1 [Pictilisib] (partner 1 µM)
Summary of the method: (§1)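 Lung cancer cell lines were seeded in 1536-well plates and dosed by pin tool the next day, with either a single drug or a fixed anchor-drug dose combined with five library-drug doses (not always all listed) spaced in √10 steps. Five days later, one step fixed the cells and stained their nuclei (final 0.05% Triton X-100, 1% formaldehyde, 1 ug/ml Hoechst), and nuclei were counted on 4× images. Relative viability is the nuclei count in treated wells divided by the count in vehicle wells, and each value is the median of duplicate plates.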

[1] = compound: CN1C=C(C2=CC=CC=C21)/C=C\3/C4=C(C=CC=N4)NC3=O + CC(=O)Nc1cccc(-n2c(=O)n(C3CC3)c(=O)c3c(Nc4ccc(I)cc4F)n(C)c(=O)c(C)c32)c1 [Trametinib] (partner 0.02 µM)
Summary of the method: as §1

[2] = compound: CN1C=C(C2=CC=CC=C21)/C=C\3/C4=C(C=CC=N4)NC3=O + COc1cc2c(Oc3ccc(NC(=O)C4(C(=O)Nc5ccc(F)cc5)CC4)cc3F)ccnc2cc1OCCCN1CCOCC1 [Foretinib] (partner 0.25 µM)
Summary of the method: as §1

[3] = compound: CN1C=C(C2=CC=CC=C21)/C=C\3/C4=C(C=CC=N4)NC3=O + Cc1nc(NC(=O)N2CCC[C@H]2C(N)=O)sc1-c1ccnc(C(C)(C)C(F)(F)F)c1 [Alpelisib] (partner 2 µM)
Summary of the method: as §1

| Cell Line | relative viability (Trametinib + Pictilisib; first compound 0.0025 µM) | relative viability (Trametinib + Pictilisib; first compound 0.007906 µM) | relative viability (Trametinib + Pictilisib; first compound 0.025 µM) | relative viability (Trametinib + Pictilisib; first compound 0.07906 µM) | relative viability (Trametinib + Pictilisib; first compound 0.25 µM) | relative viability ([1]; first compound 0.02 µM) | relative viability ([1]; first compound 0.06325 µM) | relative viability ([1]; first compound 0.2 µM) | relative viability ([1]; first compound 0.6325 µM) | relative viability ([1]; first compound 2 µM) | relative viability ([2]; first compound 0.02 µM) | relative viability ([2]; first compound 0.06325 µM) | relative viability ([2]; first compound 0.2 µM) | relative viability ([2]; first compound 0.6325 µM) | relative viability ([2]; first compound 2 µM) | relative viability ([3]; first compound 0.02 µM) | relative viability ([3]; first compound 0.06325 µM) | relative viability ([3]; first compound 0.2 µM) | relative viability ([3]; first compound 0.6325 µM) | relative viability ([3]; first compound 2 µM) |
| --- | --- | --- | --- | --- | --- | --- | --- | --- | --- | --- | --- | --- | --- | --- | --- | --- | --- | --- | --- | --- |
| NCI-H2347 | 0.452 | 0.301 | 0.221 | 0.229 | 0.272 | 0.246 | 0.271 | 0.296 | 0.319 | 0.274 | 1.13 | 0.76 | 0.988 | 0.707 | 0.748 | 1.09 | 0.972 | 1.02 | 0.89 | 1.1 |
| NCI-H2405 | 0.298 | 0.251 | 0.257 | 0.204 | 0.236 | 0.686 | 0.561 | 0.564 | 0.657 | 0.617 | 1.04 | 1.03 | 0.896 | 1.01 | 1.05 | 0.654 | 0.776 | 0.769 | 0.842 | 0.7 |
| NCI-H3122 | 0.287 | 0.24 | 0.197 | 0.189 | 0.175 | 0.153 | 0.21 | 0.227 | 0.242 | 0.269 | 0.857 | 0.941 | 0.907 | 1.06 | 1.04 | 0.727 | 0.764 | 0.722 | 0.802 | 1 |
| PC-3 [JPC-3] | 0.765 | 0.474 | 0.484 | 0.438 | 0.44 | 0.824 | 0.657 | 0.667 | 0.718 | 0.717 | 1.06 | 1.02 | 0.987 | 0.973 | 1.05 | 1.02 | 0.99 | 1.03 | 1.03 | 0.989 |
